Measurements from patent publication US20190002492A1, “DERIVATIVES OF ALLOPR[…] OF EPIALLOPR[…] USES THEREOF FOR TREATING A NEUROPATHOLOGICAL CONDITION” (UNIVERSITE DE STRASBOURG, priority 2011, published 2019).
Entries after “also recorded” stand apart in the source; their conditions may differ. Structures can show the parent of a compound that is named as a salt.

Assays:
[1] = test system: Sprague-Dawley rats; assay: Acetone test of thermal allodynia to cold, painful neuropathy caused by vincristine; type: in vivo, rat
Source text: (§1) Adult male Sprague-Dawley rats weighing between 250 and 300 g were used. They came from the company Janvier (le Genest St. Isle, France). The care and handling of the animals were done in accordance with the guidelines from the Council of the European Community (86/609/EC) and in accordance with the ethical rules of the International Association for the Study of Pain. The protocol used to carry out the in vivo studies was subject to examination and authorization granted to Prof. Mensah-Nyagan's team by the Alsatian Department of the Veterinary Public Health Guide for the Care and Use of Laboratory Animals (Approval number 67-186). The rats were housed under standard conditions with a photoperiod of 12 h day/12 h night, with unlimited food and water. The animals spent one acclimatization week before being integrated into the experimental protocols. Each animal was examined daily to detect any signs of deterioration of its health condition, such as dramatic weight loss, a decrease in appetite during chemotherapy and pharmacological treatment.
(§2) Vincristine sulfate (VINC), purchased from Sigma-Aldrich (St. Louis, Mo., USA), was dissolved in a physiological saline solution (NaCl 0.9%) at 0.1 mg/ml and stored at 4° C. The saline solution (NaCl 0.9%) is used as excipient. The VINC is injected daily by intraperitoneal injection (i.p.), in 2 cycles of 5 days separated by 2 days off, at a concentration of 0.1 mg/kg/day. The control animals were injected by i.p. (1 ml/kg) with the excipient using a similar protocol.
(§3) The allopregnanolone in the derivatives according to the invention (BR053 and BR297) were diluted in a hydroxypropylcellulose (HPC) solution (0.3%) used as excipient. The curative treatment with allopregnanolone, BR053 or BR297 began 3 days after the vincristine cycles. Each of these compounds (allopregnanolone, BR053 or BR297) was administered by the intraperitoneal route at a dose of 4 mg/kg at a rate of one injection every 2 days. Thus, over the total duration of the in vivo experiments (14 days), each animal received 7 injections of excipient, allopregnanolone, BR053 or BR297, based on its group, at a dose of 4 mg/kg. The animals were sacrificed 24 hours after the last behavioral test (28th day) to remove tissues that will be used for later histology and electrophysiology studies.
The thermal nociceptive sensitivity threshold to cold was measured in rats placed in individual Plexiglas boxes (30×30×25 cm) mounted on a raised mesh support so as to allow access to the sole of the animal's foot. […] Six measurements (3 per foot) were performed with a latency of 5 minutes between each stimulation. The average latency for withdrawal of the feet (in seconds) was calculated by averaging 6 measurements at each studied point in time. […]

[2] = test system: Sprague-Dawley rats; assay: Von Frey filament test, painful neuropathy caused by vincristine; type: in vivo, rat
Source text: as §1, §2, §3
(§4) The mechanical nociceptive sensitivity threshold was evaluated in rats placed in individual Plexiglas boxes (30×30×25 cm) mounted on a raised mesh support thereby allowing access to the surface or arch of the back feet. The presence of allodynia (exaggerated response following a normally […] stimulation) was measured using a series of calibrated von Frey filaments (1, 2, 4, 6, 8, 10, 15, 26, 100, 180 and 300 g; Stoelting, Wood Dale, Ill., USA), which were applied on the sole of the back foot of the animal with increasing force until the filament twisted. The filament was applied for a period of 1 to 2 seconds and the procedure was repeated 5 times at 4-5 second intervals. The withdrawal threshold of the foot was calculated by taking the average of […] repeated stimuli (in grams) that caused a reflex to withdraw the foot. Only vigorous and fast withdrawals of the foot were considered positive. In the experiments, the naïve animals never responded to the 4 g filament and responded 25-30% of the time to the 15 g filament.

[3] = test system: type A GABA channel receptors (GABAa-R); assay: Whole-cell patch-clamp, effect on GABA-induced ionic current; type: cell-based, human; details: 0.25 μM compound, GABA 10 μM in the recording pipette; for Effect on the type A GABA receptor channel or GABAa-R: whole cell patch-clamp
Protocol: The studies were conducted using an electrophysiological approach. The activity of the cells was recorded using the patch-clamp technique in its so-called whole cell configuration. The mediums used for the recordings have the following composition (in mM): NaCl ([…]), KCl (2), CaCl2 (1), MgCl2 (2), HEPES (10) for the medium bathing the cells and NaCl (132), KCl (2), CaCl2 (1), MgCl2 (2), TEA (15), HEPES (10) for the recording pipette, the pH was adjusted in both cases to 7.4 with NaOH. The GABA 10 μM was added into the recording pipette.
After producing a “gigaseal” (Planar patch clamp) between the cellular membrane and the tip of a pipette with an electrical resistance comprised between 4 and 7 MO, the ionic currents were measured using a patch-clamp amplifier (Axopatch B200, Axon Instruments, CA). The acquisition of the signal (acquisition frequency of 10 kHz) was done using an interface card (Digidata 1322A, Axon Instruments, CA) and the pClamp 8 software (Axons Instruments, CA).
The allopregnanolone and the BR053, BR338, BR297 and BR351 derivatives were solubilized in pure ethanol before being diluted in the medium to the desired concentration. The dilution factor was at least equal to 2×10^4, which makes the final concentration of ethanol in the recording solution remain below […] (a concentration not affecting the activity of the GABAa receptor).
Depending on the experiments, the allopregnanolone or the BR053, BR338, BR297 or BR351 derivatives, at the concentration of 0.25 μM, were either added in the recording pipette at the same time as the GABA, or applied to the cell by perfusion.
The application was done by gravity through a multi-path perfusion system made up of glass tubes each having an inner diameter of 1 mm. The selected path was placed across from the recorded cell at approximately 100 μm. The solution was changed by calibrated rotation of the tubes using a stepping motor thus placing the new selected path across from the cell. Synchronously with that rotation, the solenoid valve controlling the flow of the selected path was also opened and the preceding one closed.

[4] = test system: Sprague-Dawley rats; assay: Von Frey mechanical nociceptive sensitivity threshold in healthy animals not treated with vincristine; type: in vivo, rat; details: 4 mg/kg every 2 days for 2 weeks
Source text: as §1, §3
as §4, with “In the experiments, the naïve animals never responded to the 4 g filament and responded 25-30% of the time to the 15 g filament.” left out

[5] = test system: SH-SY5Y human neuroblastomas; assay: Neuroprotection against cell death caused by oxidizing stress (H2O2), MTT readout; type: cell-based; parameters: key to Neuroprotective effect against cell death caused by oxidizing stress: −: no effect; +: low effect; ++: high effect; +++: very high effect; details: H2O2 1 mM; for Neuroprotective effect against cell death caused by oxidizing stress: SH-SY5Y cultures, 24 or 48 hours, MTT; for Protection of human neuroblastomas from cell death caused by H2O2 (in words): SH-SY5Y
Protocol: (§5) The cellular model used to carry out the in vitro experiments is a line of human neuroblastomas called line SH-SY5Y.
(§6) The human neuroblastoma is a cultivated at 37° C. in a humidity saturated atmosphere, under 5% CO2 in a culture medium formed by DMEM with an added 10% (v/v) fetal calf serum, 5% (v/v) horse serum, 2 mM glutamax and 1% (v/v) of the penicillin/streptomycin mixture.
The human neuroblastomas were incubated with the culture medium alone or containing the chief inducing agent of oxidizing stress, hydrogen peroxide (H2O2), at various concentrations in order to determine the concentrations of H2O2 and the incubation times causing the death of a significant percentage of the cells. The neuroprotective properties of the BR053, BR338, BR297 and BR351 derivatives were determined by pretreating the SH-SY5Y cells with the culture medium alone or respectively containing the BR053, BR338, BR297 or BR351 derivative. After pretreatment, each of these categories of cells was integrated for 24 hours or 48 hours with the following solutions: (i) culture medium; (ii) culture medium containing only the BR053, BR338, BR297 or BR351 derivative; (iii) culture medium containing only H2O2 at a concentration of 1 mM, which causes a high percentage of cell death; (iv) culture medium containing both H2O2 (1 mM) and one of the BR053, BR338, BR297 or BR351 derivatives.
10 μl of a stock solution of tetrazolium, abbreviated MTT, at 3.6 mM was added in each well and the incubation continued in darkness for 5 h at 37° C. After cell lysis, spectrophotometer measurements at 595 nm were carried out to determine the survival and cell density under each of the conditions described above.

[6] = test system: SH-SY5Y human neuroblastomas; assay: MTT assay of cell viability and density: effect on cell proliferation; type: cell-based; parameters: key to Effect on cell proliferation (neural proliferative effect): −: no effect; +: low effect; ++: high effect; +++: very high effect; details: SH-SY5Y cultures
Protocol: as §5, §6
The cellular viability and the density (or number of SH-SY5Y cells/cm^2) were determined using the MTT reduction assay. The MTT technique is a colorimetric test that measures the reduction of the tetrazolium salt (3-[4,5-dimethylthiazol-2-yl]-2,5-diphenyl tetrazolium bromide) in formazan by the succinate dehydrogenase present in the mitochondria of the living cells. The formazan forms blue crystals. Thus, after solubilization of the crystals, the measurement of the absorbance at 595 nm makes it possible to obtain absorbency values directly proportional to the number of viable cells and the cell density in the culture boxes.
The effects of derivatives BR053, BR338, BR297 and BR351 on cell proliferation were evaluated by comparing the number of viable cells and the cell density in the control culture boxes, treated only with the culture medium described in paragraph A1 above, and the culture boxes exposed to the culture medium with the added BR053, BR338, BR297 or BR351 derivatives.

[7] = rats with vincristine neuropathy, 4 mg/kg i.p. every 2 days for 2 weeks

| SMILES | Latency for withdrawal of the foot, acetone test ([1]; rats after vincristine chemotherapy, 20 seconds before) | Von Frey filament that causes more than 70% of responses ([2]; rats after vincristine 0.1 mg/kg/day i.p., 2 cycles of 5 days, 80 g before treatment) | Responses to the 15 g filament (mechanical hyperalgesia) ([2]; rats after vincristine chemotherapy, 30% before) | Responses to the 4 g filament (mechanical allodynia) ([2]; rats after vincristine chemotherapy, no response before treatment) | Effect on the type A GABA receptor channel or GABAa-R [3] | Effect on the type A GABA receptor channel or GABAa-R ([3]; listed as allopregnanolone) | Effect on thermal allodynia to cold [1, 7] | Effect on mechanical allodynia and mechanical hyperalgesia [2, 7] | Anti-nociceptive effect in healthy animals [4] | Mechanical nociceptive sensitivity threshold after treatment ([4]; 80 g before) | Neuroprotective effect against cell death caused by oxidizing stress [5] | Protection of human neuroblastomas from cell death caused by H2O2 (in words) [5] | Time until desensitization of the GABAa-R channel [3] | Effect on cell proliferation (neural proliferative effect) [6] | Effect on the proliferation of human neuroblastomas (in words) [6] |
| --- | --- | --- | --- | --- | --- | --- | --- | --- | --- | --- | --- | --- | --- | --- | --- |
| CC[C@]1(O)C[C@H]2CN(CCc3c([nH]c4ccccc34)[C@@](C(=O)OC)(c3cc4c(cc3OC)N(C=O)[C@H]3[C@@](O)(C(=O)OC)[C@H](OC(C)=O)[C@]5(CC)C=CCN6CC[C@]43[C@@H]65)C2)C1 [vincristine, Vincristine sulfate] | 11 s | 20 g | ~70% | more than 30% | – | – | – | – | – | – | – | – | – | – | – |
| CC(=O)[C@H]1CCC2C3CC[C@H]4C[C@H](O)CC[C@]4(C)C3CC[C@@]21C (stereo partly drawn) [Allopregnanolone, reference compound] | – | – | – | – | Positive allosteric effect | positive allosteric effect | eliminates the symptoms | eliminates the symptoms | significant anti-nociceptive effect | 200 g | – | – | – | – | – |
| C=CCO[C@@H]1CC[C@]2(C)C3CC[C@@]4(C)C(CC[C@@H]4C(C)=O)C3CC[C@H]2C1 (stereo partly drawn) [BR351] | – | – | – | – | only temporarily reproduces the positive allosteric effect; also recorded: Temporary positive allosteric | – | – | – | – | – | +++ | capable of protecting human neuroblastomas from the cell death | 1 min | +++ | very high effectiveness |
| CC(=O)[C@H]1CCC2C3CC[C@H]4C[C@H](O)CC[C@]4(C)C3CC(=O)[C@@]21C (stereo partly drawn) [BR338] | – | – | – | – | Positive allosteric effect | – | – | – | – | – | + | capable of protecting human neuroblastomas from the cell death | – | ++ | high effectiveness |
